For one assay, the species on record is Homo sapiens. Description: Compound tested for the in vitro inhibition of TNF-alpha production was determined by using LPS-stimulated human whole blood assay (WBA). The format is functional.
Assay [1] has as its target Matrix metalloproteinase-9 (Homo sapiens, UniProt P14780). Description: Inhibition of matrix metalloprotease-9 (MMP-9).
The target of assay [2] is 72 kDa type IV collagenase (Homo sapiens, UniProt P08253). Kind of assay: Inhibition of matrix metalloprotease-2 (MMP-2).
Sequence of 72 kDa type IV collagenase (P08253 whole entry): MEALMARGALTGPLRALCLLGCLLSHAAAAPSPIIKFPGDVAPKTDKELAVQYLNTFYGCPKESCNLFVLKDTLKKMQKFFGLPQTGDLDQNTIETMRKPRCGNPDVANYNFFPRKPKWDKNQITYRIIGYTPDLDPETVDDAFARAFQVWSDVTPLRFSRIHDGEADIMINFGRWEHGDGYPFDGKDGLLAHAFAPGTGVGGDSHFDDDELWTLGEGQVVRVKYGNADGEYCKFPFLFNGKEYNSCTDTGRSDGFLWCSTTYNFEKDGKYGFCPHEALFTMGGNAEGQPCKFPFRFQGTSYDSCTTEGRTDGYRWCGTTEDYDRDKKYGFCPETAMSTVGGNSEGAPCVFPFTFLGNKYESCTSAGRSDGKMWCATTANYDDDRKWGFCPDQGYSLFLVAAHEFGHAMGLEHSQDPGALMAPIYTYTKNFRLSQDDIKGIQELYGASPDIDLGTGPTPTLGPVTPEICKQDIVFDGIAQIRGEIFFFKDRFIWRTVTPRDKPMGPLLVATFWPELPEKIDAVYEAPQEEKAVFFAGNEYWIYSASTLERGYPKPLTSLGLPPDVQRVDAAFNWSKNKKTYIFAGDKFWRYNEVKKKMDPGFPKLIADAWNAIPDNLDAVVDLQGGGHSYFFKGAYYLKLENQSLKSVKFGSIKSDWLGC
The target of another assay is T1, Interstitial collagenase (Homo sapiens, UniProt P03956).
T1 sequence (P03956 whole entry): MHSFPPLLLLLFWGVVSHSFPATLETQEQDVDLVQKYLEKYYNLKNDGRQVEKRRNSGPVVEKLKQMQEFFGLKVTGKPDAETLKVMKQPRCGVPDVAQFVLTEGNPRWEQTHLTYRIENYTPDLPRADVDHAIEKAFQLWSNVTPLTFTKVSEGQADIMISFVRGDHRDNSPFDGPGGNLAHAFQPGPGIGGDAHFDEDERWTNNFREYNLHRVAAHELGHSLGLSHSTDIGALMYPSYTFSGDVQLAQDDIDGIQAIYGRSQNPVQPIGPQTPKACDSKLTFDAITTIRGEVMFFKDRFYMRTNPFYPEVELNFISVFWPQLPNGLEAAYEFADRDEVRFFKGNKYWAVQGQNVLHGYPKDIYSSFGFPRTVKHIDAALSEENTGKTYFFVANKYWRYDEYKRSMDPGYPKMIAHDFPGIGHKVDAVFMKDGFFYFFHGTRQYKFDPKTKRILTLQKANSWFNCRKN
Kind of assay: Inhibition of matrix metalloprotease-1 (MMP-1).

In assay [3] the target is Disintegrin and metalloproteinase domain-containing protein 17 (Sus scrofa, UniProt O77636). Description: Inhibition of porcine TACE.
Sequence of Disintegrin and metalloproteinase domain-containing protein 17 (O77636 whole entry, the tested form may be a part): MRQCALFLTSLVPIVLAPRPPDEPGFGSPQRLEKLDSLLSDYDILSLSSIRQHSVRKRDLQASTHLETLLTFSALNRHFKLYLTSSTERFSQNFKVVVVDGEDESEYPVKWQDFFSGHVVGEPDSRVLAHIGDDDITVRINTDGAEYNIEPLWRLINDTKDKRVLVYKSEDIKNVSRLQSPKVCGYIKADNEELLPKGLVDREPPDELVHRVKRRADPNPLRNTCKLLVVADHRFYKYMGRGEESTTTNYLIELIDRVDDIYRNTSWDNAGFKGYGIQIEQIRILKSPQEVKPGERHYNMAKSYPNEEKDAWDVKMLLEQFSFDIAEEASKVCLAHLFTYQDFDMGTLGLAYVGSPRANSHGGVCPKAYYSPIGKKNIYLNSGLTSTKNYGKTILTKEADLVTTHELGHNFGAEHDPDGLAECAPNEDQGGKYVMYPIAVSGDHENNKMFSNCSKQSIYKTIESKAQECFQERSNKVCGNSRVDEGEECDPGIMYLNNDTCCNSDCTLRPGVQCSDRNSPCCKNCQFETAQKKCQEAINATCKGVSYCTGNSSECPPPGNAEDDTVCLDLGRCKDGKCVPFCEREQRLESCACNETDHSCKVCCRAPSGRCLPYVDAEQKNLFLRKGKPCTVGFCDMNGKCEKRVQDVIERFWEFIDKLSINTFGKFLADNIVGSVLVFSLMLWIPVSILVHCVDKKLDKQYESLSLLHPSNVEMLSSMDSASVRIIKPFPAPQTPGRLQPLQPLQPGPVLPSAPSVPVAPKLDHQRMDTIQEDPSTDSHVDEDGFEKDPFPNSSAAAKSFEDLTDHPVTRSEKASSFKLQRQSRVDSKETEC
Assay [4] in a line: Inhibition of aggrecanase.

SMILES strings stand for the structures. pIC50, pKi: −log10 of the molar value.

Sequence of Matrix metalloproteinase-9 (P14780 whole entry): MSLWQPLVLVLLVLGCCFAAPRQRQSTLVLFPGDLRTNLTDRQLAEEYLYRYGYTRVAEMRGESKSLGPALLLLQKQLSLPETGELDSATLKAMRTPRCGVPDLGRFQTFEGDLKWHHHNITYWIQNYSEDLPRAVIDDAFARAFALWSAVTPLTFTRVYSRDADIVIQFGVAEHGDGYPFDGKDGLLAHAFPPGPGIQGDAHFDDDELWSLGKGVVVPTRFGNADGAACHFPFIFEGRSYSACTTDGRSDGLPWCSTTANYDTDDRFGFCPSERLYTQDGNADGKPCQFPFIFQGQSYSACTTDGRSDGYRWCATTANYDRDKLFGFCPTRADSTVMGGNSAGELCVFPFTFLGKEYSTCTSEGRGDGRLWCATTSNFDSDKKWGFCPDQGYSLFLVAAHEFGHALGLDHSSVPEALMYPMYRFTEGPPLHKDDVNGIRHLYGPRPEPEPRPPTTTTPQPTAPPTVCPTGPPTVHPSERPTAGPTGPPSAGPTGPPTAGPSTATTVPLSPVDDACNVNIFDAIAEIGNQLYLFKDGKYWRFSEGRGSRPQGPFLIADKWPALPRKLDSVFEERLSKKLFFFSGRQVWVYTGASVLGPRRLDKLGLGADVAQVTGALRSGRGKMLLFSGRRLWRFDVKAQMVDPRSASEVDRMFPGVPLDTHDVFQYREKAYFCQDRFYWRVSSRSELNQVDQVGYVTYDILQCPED

As a reminder, the pIC50 is the IC50 on a negative log10 scale, so that one unit is a factor of ten. A higher pIC50 goes with a low IC50. For orientation: pKi means the Ki on a negative log10 scale, so that one unit is a factor of ten. A high value points to a small Ki. `O=C(NO)[C@H]1CCCC[C@@H]1C(=O)Nc1ccc(C#Cc2ccc3ncccc3c2)cc1`: the results for the negative logarithm of the IC50 (pIC50) (in the assay listed under Homo sapiens; in assay [3]) were below 4.30 and 5.14, respectively. Besides, the pKi in assay [1] is below 5.67; in assay [2], below 5.48; at Interstitial collagenase, below 5.31; in assay [4] it was below 6.30.
Regarding `O=C(NO)[C@H]1CCCC[C@@H]1C(=O)Nc1ccc(COc2ccnc3ccccc23)cc1`, the pIC50 in the assay filed under Homo sapiens is below 4.30; in assay [3], 8.10. Moreover, the negative logarithm of the Ki (pKi) in assay [1] is below 5.67; in assay [2], below 5.48; at Interstitial collagenase, below 5.31; in assay [4], below 6.30.
With `O=C(NO)[C@H]1CCCC[C@@H]1C(=O)Nc1ccc(OCc2ccccc2)cc1`, the pIC50 in the assay listed under Homo sapiens is below 4.30; in assay [3] it was 7.05. For the same molecule, the negative-log Ki (pKi) is below 5.67 in assay [1], below 5.48 in assay [2], below 5.31 at Interstitial collagenase and below 6.30 in assay [4].
Regarding `O=C1NCCCC[C@@H](C(=O)NCC(=O)N2CCOCC2)NC(=O)[C@H](Cc2ccc(-c3ccccc3C(F)(F)F)cc2)[C@@H](C(=O)NO)CCCO1`, the pIC50 in the assay listed under Homo sapiens was below 7.15. Moreover, the pKi (in assay [1]; in assay [2]; on Interstitial collagenase) was below 5.70 in each case.
As to `O=C(NO)[C@H]1CCCC[C@@H]1C(=O)Nc1ccc(COc2ccc3ncccc3c2)cc1`, the negative-log IC50 (pIC50) in the assay filed under Homo sapiens is below 4.30; in assay [3], 7.25. Besides, the negative logarithm of the Ki (pKi) in assay [1] was 6.06; in assay [2], 5.97; on Interstitial collagenase it was below 5.31; in assay [4] it was below 6.30.
As for `O=C(NO)[C@H]1CCC[C@@H]1C(=O)Nc1ccc(OCc2cc(Cl)cc(Cl)c2)cc1`, the results for the pIC50 (in the assay filed under Homo sapiens; in assay [3]) were below 4.30 and 7.28, respectively. For the same molecule, the pKi in assay [1] was below 5.67; in assay [2], below 5.48; on Interstitial collagenase, below 5.31; in assay [4], below 6.30.
`O=C(NO)[C@H]1CCC[C@@H]1C(=O)Nc1ccc(OCc2ccncc2)cc1`: the negative-log IC50 (pIC50) in the assay listed under Homo sapiens is below 4.30; in assay [3], 6.21. Moreover, the pKi is below 5.67 in assay [1], below 5.48 in assay [2], below 5.31 at Interstitial collagenase and below 6.30 in assay [4].
As to `O=C(NO)[C@H]1CCC[C@@H]1C(=O)Nc1ccc(Cc2ccncc2)cc1`, the pIC50 is below 4.30 in the assay listed under Homo sapiens and 6.68 in assay [3]. Besides, the pKi is below 5.67 in assay [1], 6.17 in assay [2], below 5.31 at Interstitial collagenase and below 6.30 in assay [4].
As to `O=C(NO)[C@H]1CCCC[C@@H]1C(=O)Nc1ccc(COc2cccc3ncccc23)cc1`, the pIC50 is below 4.30 in the assay listed under Homo sapiens and 7.35 in assay [3]. The pKi in assay [1] is 5.87; in assay [2] it was 6.23; on Interstitial collagenase, below 5.31; in assay [4], below 6.30.
`O=C(NO)[C@H]1CCC[C@@H]1C(=O)Nc1ccc(OCc2ccccc2)cc1`: the pIC50 in the assay filed under Homo sapiens is below 4.30; in assay [3] it was 6.96. The negative-log Ki (pKi) in assay [1] was below 5.67; in assay [2], below 5.48; at Interstitial collagenase, below 5.31; in assay [4], below 6.30.
On to `O=C(NO)[C@H]1CCC[C@@H]1C(=O)Nc1ccc(COc2ccnc3ccccc23)cc1`, for which the pIC50 in the assay filed under Homo sapiens is below 4.30; in assay [3], 7.41. Further, the pKi is below 5.67 in assay [1], below 5.48 in assay [2], below 5.31 at Interstitial collagenase and below 6.30 in assay [4].
